What all share (assay): relative viability (nuclei count vs DMSO), 5 days (fraction); higher = more cells survive
Compound in assay [1]: C=CCn1c(=O)c2cnc(Nc3ccc(N4CCN(C)CC4)cc3)nc2n1-c1cccc(C(C)(C)O)n1 [Adavosertib] + CC(C)C[C@H](NC(=O)[C@H](Cc1ccccc1)NC(=O)c1cnccn1)B(O)O [Bortezomib] (partner 0.002 µM)
The essentials: (§1)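 Relative viability divides the nuclei count in treated wells by that in vehicle wells. Lung cancer cell lines were seeded in 1536-well plates, dosed by pin tool the next day, and fixed and stained after 5 days in one step with final 0.05% Triton X-100, 1% formaldehyde and 1 ug/ml Hoechst. Dosing was a single drug or a fixed anchor-drug dose plus five library-drug doses (not always all listed) in √10 steps, and values are medians of duplicate plates imaged at 4×.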

Compound in assay [2]: C=CCn1c(=O)c2cnc(Nc3ccc(N4CCN(C)CC4)cc3)nc2n1-c1cccc(C(C)(C)O)n1 [Adavosertib] + O=C(c1cc(Cc2n[nH]c(=O)c3ccccc23)ccc1F)N1CCN(C(=O)C2CC2)CC1 [Olaparib] (partner 8 µM)
The essentials: as §1

Compound in assay [3]: C=CCn1c(=O)c2cnc(Nc3ccc(N4CCN(C)CC4)cc3)nc2n1-c1cccc(C(C)(C)O)n1 [Adavosertib] + CS(=O)(=O)N1CCN(Cc2cc3nc(-c4cccc5[nH]ncc45)nc(N4CCOCC4)c3s2)CC1 [Pictilisib] (partner 1 µM)
The gist of the method:
as §1

Compound in assay [4]: COc1nc(N)nc2c1ncn2[C@@H]1O[C@H](CO)[C@@H](O)[C@@H]1O [Nelarabine] + Cc1nc(Nc2ncc(C(=O)Nc3c(C)cccc3Cl)s2)cc(N2CCN(CCO)CC2)n1 [Dasatinib] (partner 0.075 µM)
The gist of the method:
as §1

Turning to RERF-LC-KJ, the relative viability stood at 1.14 in assay [1] (first compound 0.01 µM); 1.02 in assay [1] (first compound 0.03162 µM); 1.19 in assay [1] (first compound 0.1 µM); 1.28 in assay [1] (first compound 0.3162 µM); 0.952 in assay [2] (first compound 0.01 µM); 0.986 in assay [2] (first compound 0.03162 µM). Also, the relative viability in assay [2] (first compound 0.1 µM) stood at 1.05; in assay [2] (first compound 0.3162 µM), 0.955; in assay [3] (first compound 0.01 µM), 0.568; in assay [3] (first compound 0.03162 µM) it was 0.636; in assay [3] (first compound 0.1 µM), 0.519; in assay [3] (first compound 0.3162 µM), 0.358. For the same cell line, the relative viability in assay [4] (first compound 0.01 µM) was 0.824; in assay [4] (first compound 0.03162 µM), 0.884; in assay [4] (first compound 0.1 µM) it was 0.716; in assay [4] (first compound 0.3162 µM), 0.808; in assay [4] (first compound 1 µM), 0.761.
As for SK-LU-1, the relative viability in assay [1] (first compound 0.01 µM) was determined as 1.07; in assay [1] (first compound 0.03162 µM) it was 1.29; in assay [1] (first compound 0.1 µM) it was 1.16; in assay [1] (first compound 0.3162 µM) it was 0.479; in assay [2] (first compound 0.01 µM), 0.498; in assay [2] (first compound 0.03162 µM), 0.461. Further, the relative viability in assay [2] (first compound 0.1 µM) is 0.389; in assay [2] (first compound 0.3162 µM), 0.249; in assay [3] (first compound 0.01 µM), 0.649; in assay [3] (first compound 0.03162 µM), 0.532; in assay [3] (first compound 0.1 µM) it was 0.456; in assay [3] (first compound 0.3162 µM), 0.242. Besides, the relative viability in assay [4] (first compound 0.01 µM) turned out to be 0.179; in assay [4] (first compound 0.03162 µM), 0.105; in assay [4] (first compound 0.1 µM), 0.142; in assay [4] (first compound 0.3162 µM), 0.171; in assay [4] (first compound 1 µM), 0.165.
Consider SW 1573, for which the relative viability in assay [1] (first compound 0.01 µM) was 1.21; in assay [1] (first compound 0.03162 µM), 1.07; in assay [1] (first compound 0.1 µM), 1.16; in assay [1] (first compound 0.3162 µM) it was 1.16; in assay [2] (first compound 0.01 µM) it was 0.507; in assay [2] (first compound 0.03162 µM), 0.564. Further, the relative viability came to 0.663 in assay [2] (first compound 0.1 µM); 0.372 in assay [2] (first compound 0.3162 µM); 0.482 in assay [3] (first compound 0.01 µM); 0.525 in assay [3] (first compound 0.03162 µM); 0.58 in assay [3] (first compound 0.1 µM); 0.343 in assay [3] (first compound 0.3162 µM). In addition, the relative viability in assay [4] (first compound 0.01 µM) amounted to 0.422; in assay [4] (first compound 0.03162 µM), 0.453; in assay [4] (first compound 0.1 µM), 0.394; in assay [4] (first compound 0.3162 µM), 0.485; in assay [4] (first compound 1 µM) it was 0.494.
As for UMC-11, the relative viability turned out to be 0.737 in assay [1] (first compound 0.01 µM); 0.481 in assay [1] (first compound 0.03162 µM); 0.927 in assay [1] (first compound 0.1 µM); 0.708 in assay [1] (first compound 0.3162 µM); 0.411 in assay [2] (first compound 0.01 µM); 0.429 in assay [2] (first compound 0.03162 µM). In addition, the relative viability in assay [2] (first compound 0.1 µM) is 0.452; in assay [2] (first compound 0.3162 µM), 1.03; in assay [3] (first compound 0.01 µM), 0.817; in assay [3] (first compound 0.03162 µM), 0.723; in assay [3] (first compound 0.1 µM), 0.743; in assay [3] (first compound 0.3162 µM), 0.755. Also, the relative viability was determined as 0.698 in assay [4] (first compound 0.01 µM); 0.463 in assay [4] (first compound 0.03162 µM); 0.575 in assay [4] (first compound 0.1 µM); 0.541 in assay [4] (first compound 0.3162 µM); 0.608 in assay [4] (first compound 1 µM).

The values above are taken from the supplement of paper PMC10307832.
